Literature values as cited in patent EP3409275B1, “COMPOSITION FOR PREVENTION AND/OR TREATMENT OF DISEASES ASSOCIATED TO HYPERALGESIA” (Neilos S.r.l., priority 2017, dated 2018).
Each block holds one compound with its values, some of them ahead of it.

Legend:
GPR55 orphan receptor = GPR55 orphan receptor (Homo sapiens, UniProt Q9Y2T6); details: activation of GPR55
[1] = mice, curcumin 40 mg/kg, phenylbutazone at similar doses
[2] = 2 g of curcumin with 20 mg of piperine, healthy volunteers

Chain of GPR55 orphan receptor (Q9Y2T6 whole entry): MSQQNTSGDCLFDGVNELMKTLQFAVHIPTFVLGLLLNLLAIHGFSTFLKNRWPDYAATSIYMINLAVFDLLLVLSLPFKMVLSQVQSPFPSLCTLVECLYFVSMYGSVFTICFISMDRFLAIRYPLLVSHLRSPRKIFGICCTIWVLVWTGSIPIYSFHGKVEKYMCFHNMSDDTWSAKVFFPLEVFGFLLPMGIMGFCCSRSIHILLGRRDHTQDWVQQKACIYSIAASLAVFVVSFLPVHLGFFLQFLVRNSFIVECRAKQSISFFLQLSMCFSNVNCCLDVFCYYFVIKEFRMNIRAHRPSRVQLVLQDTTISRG

EC50 (GPR55 orphan receptor): 4 nM
removal half-life (in vivo): about 12 minutes
area under the curve of PEA plasmatic level (AUC1-8h) (oral administration): 6525 ± 1372 ng PEA min ml-1
tmax (oral administration): 15 min
maximum plasmatic concentration (Cmax) (oral administration, Wistar rats): 420 ± 132 nm
Structure (SMILES): CCCCCCCCCCCCCCCC(=O)NCCO [PEA, N-(2-hydroxyethyl) hexadecanamide]

Structure (SMILES): CCCCC1C(=O)N(c2ccccc2)N(c2ccccc2)C1=O [phenylbutazone]
ulcerogenic index [1]: 1.70

increase in oral bioavailability of curcumin [2]: 20 times
Structure (SMILES): O=C(/C=C/C=C/c1ccc2c(c1)OCO2)N1CCCCC1 [piperine]
